Reference: patent publication US6297267A, “4,5-diaryloxazole compounds” (Fujisawa Pharmaceutical Co., Ltd., priority 1997, dated 2001)

Each molecule was assayed on Human Platelet (assay: Inhibition of Human Platelet Aggregation Induced by ADP). Conditions: 2 min; Test Compound 1.0 × 10^-7 M; human platelet rich plasma; ADP 2.5 μM; 2 minutes at 37° C.
Assay type: cell-based
Method: Inhibition of Human Platelet Aggregation Induced by ADP
Human blood was collected from healthy volunteers and mixed with 1/10 volume of 3.8% sodium citrate solution, pH 7.4. The citrate blood was centrifuged at 150×g for 10 minutes and the platelet rich plasma (PRP) was removed. The remaining blood was centrifuged for a further 10 minutes at 1500×g to prepare the platelet poor plasma (PPP), which was used as a reference for platelet aggregation. Aggregation studies were carried out using HEMATRACER 801 (NBS, Japan), a 8 channel aggregometer. 25 μl of a solution of Test compound in Tris-acetate buffer pH 7.4 and 225 μl of PRP were mixed and stirred at 1000 rpm for 2 minutes at 37° C. Aggregation was induced by ADP (adenosin 5'-diphosphate) solution at the final concentration of 2.5 μM.

Row | SMILES | inhibition at 0.1 µM
1 | O=C(O)COc1cccc(CC2(O)CCCC=C2c2nc(-c3ccccc3)c(-c3ccccc3)o2)c1 (stereo not drawn) [(1)] | > 90%
2 | O=C(O)COc1cccc(C[C@@H]2CCC(O)C=C2c2nc(-c3ccccc3)c(-c3ccccc3)o2)c1 (stereo partly drawn) [(2)] | > 90%
3 | O=C(O)COc1cccc(C[C@@H]2CCCC3OC32c2nc(-c3ccccc3)c(-c3ccccc3)o2)c1 (stereo partly drawn) [(3)] | > 90%
